Reference: US20160346225A1, “METHOD OF PREPARING INGESTIBLE MULTI-SHEET UNIT HAVING PREDETERMINED FUNCTIONS AND COMBINATIONS” (Purdue Research Foundation, priority 2011, published 2016)

What was measured:
[1] = dissolution of griseofulvin from particle-containing polymer films; type: physicochemical; conditions: for dissolution profile as a function of film thickness: FIG. 5D
Excerpt: A 10 micron film can be configured with the film is a single layer of particles that are held together by the polymer sheet, where the particles may or may not be larger in diameter than the film thickness. In one example, a films can be on the order of 100 microns. However, the film can be as thin as roughly the size of the largest particles.

[2] = in the dissolution medium; cited from earlier work

- drug release rate from film matrix ([1]; film matrix (HPMC or alginate) vs same type of particles (API) free from polymer, same area of exposure, FIG. 6): accelerated drug release
- drug release rate as a function of drug load in the film ([1]; range of drug loading percentages, FIG. 7): increases with drug load
SMILES: COC1=CC(=O)C[C@@H](C)[C@]12Oc1c(Cl)c(OC)cc(OC)c1C2=O [griseofulvin]
- dissolution of drug from immobilized particles at high drug load ([1]; about 72% (w/w) drug load in the film, FIG. 7): enhanced dissolution of drug from the immobilized particles is still observed
- dissolution profile as a function of film thickness ([1]; film thickness increased from 10 microns to 20 microns): initially increase the dissolution profile
- dissolution profile as a function of film thickness ([1]; film thickness increased up to 70 microns): significantly decreases the dissolution profile
- solubility [2]: poorly-soluble
